Reference: patent US11331369B2, “Endoparasitic depsipeptides” (Zoetis Services LLC, priority 2017, dated 2022)

test system: microfilariae of Dirofilaria immitis; assay: Dirofilaria immitis, Microfilaria (DiMF) In vitro Assay; format: cell-based; conditions: 72 h, read-out: DiMF Minimum Effective Dose (MED), approximately 72 hours incubation, microfilariae assessed for survival or paralysis

Q: `CC(C)C[C@H]1C(=O)O[C@H](Cc2ccc(Cn3nc(CO)cc3CO)cc2)C(=O)N(C)[C@@H](CC(C)C)C(=O)O[C@H](C)C(=O)N(C)[C@@H](CC(C)C)C(=O)O[C@H](Cc2ccc(Cn3nc(C#N)cc3C#N)cc2)C(=O)N(C)[C@@H](CC(C)C)C(=O)O[C@H](C)C(=O)N1C` [Example 1a-2, 1-(4-(((2R,5S,8R,11S,14R,17S,20R,23S)-14-(4-((3,5-bis(hydroxymethyl)-1H-pyrazol-1-yl)methyl)benzyl)-5,11,17,23-tetraisobutyl-4,8,10,16,20,22-hexamethyl-3,6,9,12,15,18,21,24-octaoxo-1,7,13,19-tetraoxa-4,10,16,22-tetraazacyclotetracosan-2-yl)methyl)benzyl)-1H-pyrazole-3,5-dicarbonitrile] was tested. Which minimal effective concentration did it give?
A: 0.001 to 0.01 µM

Q: Which minimal effective concentration does the source give for `CC(C)C[C@H]1C(=O)O[C@H](Cc2ccc(Cn3nc(-c4ccco4)cc3CO)cc2)C(=O)N(C)[C@@H](CC(C)C)C(=O)O[C@H](C)C(=O)N(C)[C@@H](CC(C)C)C(=O)O[C@H](Cc2ccc(Cn3nc(C#N)cc3C#N)cc2)C(=O)N(C)[C@@H](CC(C)C)C(=O)O[C@H](C)C(=O)N1C` [Example 1a-3, 1-(4-(((2R,5S,8R,11S,14R,17S,20R,23S)-14-(4-((3-(furan-2-yl)-5-(hydroxymethyl)-1H-pyrazol-1-yl)methyl)benzyl)-5,11,17,23-tetraisobutyl-4,8,10,16,20,22-hexamethyl-3,6,9,12,15,18,21,24-octaoxo-1,7,13,19-tetraoxa-4,10,16,22-tetraazacyclotetracosan-2-yl)methyl)benzyl)-1H-pyrazole-3,5-dicarbonitrile] here?
A: 0.01 to 0.1 µM

Q: How did the minimal effective concentration turn out when `CC(C)C[C@H]1C(=O)O[C@H](Cc2ccc(Cn3nc(C4CC4)cc3C3CC3)cc2)C(=O)N(C)[C@@H](CC(C)C)C(=O)O[C@H](C)C(=O)N(C)[C@@H](CC(C)C)C(=O)O[C@H](Cc2ccc(Cn3nc(-c4ccco4)cc3CO)cc2)C(=O)N(C)[C@@H](CC(C)C)C(=O)O[C@H](C)C(=O)N1C` [Example 1a-6, (3S,6R,9S,12R,15S,18R,21S,24R)-6-(4-((3,5-dicyclopropyl-1H-pyrazol-1-yl)methyl)benzyl)-18-(4-((3-(furan-2-yl)-5-(hydroxymethyl)-1H-pyrazol-1-yl)methyl)benzyl)-3,9,15,21-tetraisobutyl-4,10,12,16,22,24-hexamethyl-1,7,13,19-tetraoxa-4,10,16,22-tetraazacyclotetracosan-2,5,8,11,14,17,20,23-octaone] was run?
A: 0.01 to 0.1 µM

Q: For `Cc1nn(Cc2ccc(C[C@H]3OC(=O)[C@H](CC(C)C)N(C)C(=O)[C@@H](C)OC(=O)[C@H](CC(C)C)N(C)C(=O)[C@@H](Cc4ccc(Cn5nc(C6CC6)cc5C5CC5)cc4)OC(=O)[C@H](CC(C)C)N(C)C(=O)[C@@H](C)OC(=O)[C@H](CC(C)C)N(C)C3=O)cc2)cc1CO` [Example 1a-8, (3S,6R,9S,12R,15S,18R,21S,24R)-6-(4-((3,5-dicyclopropyl-1H-pyrazol-1-yl)methyl)benzyl)-18-(4-((4-(hydroxymethyl)-3-methyl-1H-pyrazol-1-yl)methyl)benzyl)-3,9,15,21-tetraisobutyl-4,10,12,16,22,24-hexamethyl-1,7,13,19-tetraoxa-4,10,16,22-tetraazacyclotetracosan-2,5,8,11,14,17,20,23-octaone], which minimal effective concentration is on record?
A: 0.01 to 0.1 µM

Q: How did the minimal effective concentration turn out when `CC(C)C[C@H]1C(=O)O[C@H](Cc2ccc(Cn3cc(-c4ccccc4)cn3)cc2)C(=O)N(C)[C@@H](CC(C)C)C(=O)O[C@H](C)C(=O)N(C)[C@@H](CC(C)C)C(=O)O[C@H](Cc2ccc(Cn3cccn3)cc2)C(=O)N(C)[C@@H](CC(C)C)C(=O)O[C@H](C)C(=O)N1C` [Example 1a-15, (3S,6R,9S,12R,15S,18R,21S,24R)-6-(4-((1H-pyrazol-1-yl)methyl)benzyl)-3,9,15,21-tetraisobutyl-4,10,12,16,22,24-hexamethyl-18-(4-((4-phenyl-1H-pyrazol-1-yl)methyl)benzyl)-1,7,13,19-tetraoxa-4,10,16,22-tetraazacyclotetracosan-2,5,8,11,14,17,20,23-octaone] was run?
A: 0.01 to 0.1 µM

Q: With `CC(C)C[C@H]1C(=O)O[C@H](Cc2ccc(Cn3cc(-c4ccc(Cl)cc4)cn3)cc2)C(=O)N(C)[C@@H](CC(C)C)C(=O)O[C@H](C)C(=O)N(C)[C@@H](CC(C)C)C(=O)O[C@H](Cc2ccc(Cn3cccn3)cc2)C(=O)N(C)[C@@H](CC(C)C)C(=O)O[C@H](C)C(=O)N1C` [Example 1a-18, (3S,6R,9S,12R,15S,18R,21S,24R)-6-(4-((1H-pyrazol-1-yl)methyl)benzyl)-18-(4-((4-(4-chlorophenyl)-1H-pyrazol-1-yl)methyl)benzyl)-3,9,15,21-tetraisobutyl-4,10,12,16,22,24-hexamethyl-1,7,13,19-tetraoxa-4,10,16,22-tetraazacyclotetracosan-2,5,8,11,14,17,20,23-octaone] as the molecule, how does the minimal effective concentration read?
A: 0.01 to 0.1 µM

Q: For `Cc1cnn(Cc2ccc(C[C@H]3OC(=O)[C@H](CC(C)C)N(C)C(=O)[C@@H](C)OC(=O)[C@H](CC(C)C)N(C)C(=O)[C@@H](Cc4ccc(Cn5cc(-c6ccccc6)cn5)cc4)OC(=O)[C@H](CC(C)C)N(C)C(=O)[C@@H](C)OC(=O)[C@H](CC(C)C)N(C)C3=O)cc2)c1` [Example 1a-19, (3S,6R,9S,12R,15S,18R,21S,24R)-3,9,15,21-tetraisobutyl-4,6,10,16,18,22-hexamethyl-12-(4-((4-methyl-1H-pyrazol-1-yl)methyl)benzyl)-24-(4-((4-phenyl-1H-pyrazol-1-yl)methyl)benzyl)-1,7,13,19-tetraoxa-4,10,16,22-tetraazacyclotetracosan-2,5,8,11,14,17,20,23-octaone], which minimal effective concentration is on record?
A: 0.01 to 0.1 µM

Q: For `Cc1cnn(Cc2ccc(C[C@H]3OC(=O)[C@H](CC(C)C)N(C)C(=O)[C@@H](C)OC(=O)[C@H](CC(C)C)N(C)C(=O)[C@@H](Cc4ccc(Cn5cc(-c6ccc(F)cc6)cn5)cc4)OC(=O)[C@H](CC(C)C)N(C)C(=O)[C@@H](C)OC(=O)[C@H](CC(C)C)N(C)C3=O)cc2)c1` [Example 1a-22, (3S,6R,9S,12R,15S,18R,21S,24R)-6-(4-((4-(4-fluorophenyl)-1H-pyrazol-1-yl)methyl)benzyl)-3,9,15,21-tetraisobutyl-4,10,12,16,22,24-hexamethyl-18-(4-((4-methyl-1H-pyrazol-1-yl)methyl)benzyl)-1,7,13,19-tetraoxa-4,10,16,22-tetraazacyclotetracosan-2,5,8,11,14,17,20,23-octaone], which minimal effective concentration is on record?
A: 0.01 to 0.1 µM

Q: For `Cc1cnn(Cc2ccc(C[C@H]3OC(=O)[C@H](CC(C)C)N(C)C(=O)[C@@H](C)OC(=O)[C@H](CC(C)C)N(C)C(=O)[C@@H](Cc4ccc(Cn5nc(C)c(S(=O)(=O)N6CCCC6)c5C)cc4)OC(=O)[C@H](CC(C)C)N(C)C(=O)[C@@H](C)OC(=O)[C@H](CC(C)C)N(C)C3=O)cc2)c1` [Example 1a-23, (3S,6R,9S,12R,15S,18R,21S,24R)-6-(4-((3,5-dimethyl-4-(pyrrolidin-1-ylsulfonyl)-1H-pyrazol-1-yl)methyl)benzyl)-3,9,15,21-tetraisobutyl-4,10,12,16,22,24-hexamethyl-18-(4-((4-methyl-1H-pyrazol-1-yl)methyl)benzyl)-1,7,13,19-tetraoxa-4,10,16,22-tetraazacyclotetracosan-2,5,8,11,14,17,20,23-octaone], which minimal effective concentration is on record?
A: 0.01 to 0.1 µM

Q: For `Cc1cnn(Cc2ccc(C[C@H]3OC(=O)[C@H](CC(C)C)N(C)C(=O)[C@@H](C)OC(=O)[C@H](CC(C)C)N(C)C(=O)[C@@H](Cc4ccc(Cn5cc(Br)cn5)cc4)OC(=O)[C@H](CC(C)C)N(C)C(=O)[C@@H](C)OC(=O)[C@H](CC(C)C)N(C)C3=O)cc2)c1` [Example 1a-24, (3S,6R,9S,12R,15S,18R,21S,24R)-6-(4-((4-bromo-1H-pyrazol-1-yl)methyl)benzyl)-3,9,15,21-tetraisobutyl-4,10,12,16,22,24-hexamethyl-18-(4-((4-methyl-1H-pyrazol-1-yl)methyl)benzyl)-1,7,13,19-tetraoxa-4,10,16,22-tetraazacyclotetracosan-2,5,8,11,14,17,20,23-octaone], which minimal effective concentration is on record?
A: 0.001 to 0.01 µM

Q: For `Cc1cnn(Cc2ccc(C[C@H]3OC(=O)[C@H](CC(C)C)N(C)C(=O)[C@@H](C)OC(=O)[C@H](CC(C)C)N(C)C(=O)[C@@H](Cc4ccc(Cn5nc(C)c(S(=O)(=O)N6CCCCC6)c5C)cc4)OC(=O)[C@H](CC(C)C)N(C)C(=O)[C@@H](C)OC(=O)[C@H](CC(C)C)N(C)C3=O)cc2)c1` [Example 1a-25, (3S,6R,9S,12R,15S,18R,21S,24R)-6-(4-((3,5-dimethyl-4-(piperidin-1-ylsulfonyl)-1H-pyrazol-1-yl)methyl)benzyl)-3,9,15,21-tetraisobutyl-4,10,12,16,22,24-hexamethyl-18-(4-((4-methyl-1H-pyrazol-1-yl)methyl)benzyl)-1,7,13,19-tetraoxa-4,10,16,22-tetraazacyclotetracosan-2,5,8,11,14,17,20,23-octaone], which minimal effective concentration is on record?
A: 0.01 to 0.1 µM

Q: For `Cc1cnn(Cc2ccc(C[C@H]3OC(=O)[C@H](CC(C)C)N(C)C(=O)[C@@H](C)OC(=O)[C@H](CC(C)C)N(C)C(=O)[C@@H](Cc4ccc(Cn5ccc(-c6ccccc6)n5)cc4)OC(=O)[C@H](CC(C)C)N(C)C(=O)[C@@H](C)OC(=O)[C@H](CC(C)C)N(C)C3=O)cc2)c1` [Example 1a-28, (3S,6R,9S,12R,15S,18R,21S,24R)-3,9,15,21-tetraisobutyl-4,6,10,16,18,22-hexamethyl-12-(4-((4-methyl-1H-pyrazol-1-yl)methyl)benzyl)-24-(4-((3-phenyl-1H-pyrazol-1-yl)methyl)benzyl)-1,7,13,19-tetraoxa-4,10,16,22-tetraazacyclotetracosan-2,5,8,11,14,17,20,23-octaone], which minimal effective concentration is on record?
A: 0.01 to 0.1 µM

Q: For `Cc1cnn(Cc2ccc(C[C@H]3OC(=O)[C@H](CC(C)C)N(C)C(=O)[C@@H](C)OC(=O)[C@H](CC(C)C)N(C)C(=O)[C@@H](Cc4ccc(Cn5ccc(C(F)(F)F)n5)cc4)OC(=O)[C@H](CC(C)C)N(C)C(=O)[C@@H](C)OC(=O)[C@H](CC(C)C)N(C)C3=O)cc2)c1` [Example 1a-29, (3S,6R,9S,12R,15S,18R,21S,24R)-3,9,15,21-tetraisobutyl-4,6,10,16,18,22-hexamethyl-12-(4-((4-methyl-1H-pyrazol-1-yl)methyl)benzyl)-24-(4-((3-(trifluoromethyl)-1H-pyrazol-1-yl)methyl)benzyl)-1,7,13,19-tetraoxa-4,10,16,22-tetraazacyclotetracosan-2,5,8,11,14,17,20,23-octaone], which minimal effective concentration is on record?
A: 0.01 to 0.1 µM
